Results on eight compounds are retold here after patent publication US11076595B2, “1-(n,n-disubstituted carbamoyl) 4-(substituted sulfonyl)triazolin-5-one derivative, 4-(n,n-disubstituted carbamoyl) 1-(substituted sulfonyl)triazolin-5-one derivative, and herbicide containing said derivative as active ingredient” (HOKKO CHEMICAL INDUSTRY CO., LTD., priority 2017, dated 2021).

Holding throughout (format): in vivo
The subject of experiment [1] is crabgrass. Kind of experiment: Test Example 13: herbicidal effect test by soil treatment in upland field. The settings on record: 120 g/10a, 14 days after treatment. The method, boiled down: (§1)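 Field alluvial soil in 36 cm^2 pots had 20 seeds of each weed mixed into its top 1 cm. One day after sowing, a water-diluted emulsifiable concentrate was sprayed onto the soil at 100 liter per 10 are (120 g active ingredient per 10 are), with two replicates. Weed suppression (%) was assessed after 14 days.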

Experiment [2] relates to Echinochloa crus-galli. Described as above. The settings on record: 120 g/10a, 14 days after treatment. The method, boiled down: as §1
Experiment [3] concerns Amaranthus viridis. The experiment is described as above. As to conditions: 120 g/10a, 14 days after treatment. In a few lines:
as §1

In experiment [4] the test system is Chenopodium album. The experiment is described as above. The settings on record: 120 g/10a, 14 days after treatment. The method, boiled down: as §1
Experiment [5] concerns Echinochloa crus-galli. Kind of experiment: Test Example 14: herbicidal effect test by foliage treatment in upland field. The settings on record: 7 days after sowing, 120 g/10a, 14 days after treatment. In a few lines: (§2)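 Dry-weight read-out: suppression (%) = (1 − mean treated dry weight/mean untreated dry weight)×100, at 14 days post-spray, two replicate plots per concentration. Spray applied 7 days after sowing, 120 g a.i. per 10 are.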

For experiment [6], the system named is Amaranthus viridis. The description is as above. The settings on record: 7 days after sowing, 120 g/10a, 14 days after treatment. The method, boiled down:
as §2

Experiment [7] has as its system Monochoria vaginalis. As to the kind of experiment: Test Example 11: herbicidal effect test by soil treatment in paddy field. The settings on record: 120 g/10a active ingredient, 14 days after treatment. The method, boiled down:
(§3)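 Puddled paddy soil with N:P:K 17:17:17 fertilizer in Wagner pots; 30 seeds per species sown at 0–1 cm, flooded to about 3 cm, kept in a glass greenhouse. Water-diluted emulsifiable concentrate dripped in immediately after sowing at 120 g a.i. per 10 are. Suppression from dry weight versus untreated at 14 days.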

Experiment [8] concerns Lindernia pyxidaria. Described as above. As to conditions: 120 g/10a active ingredient, 14 days after treatment. The method, boiled down:
as §3

Experiment [9] has as its system Echinochloa crus-galli. Described as above. The settings on record: 120 g/10a active ingredient, 14 days after treatment. The method, boiled down: as §3
The test system of experiment [10] is Scirpus juncoides. The description is as above. As to conditions: 120 g/10a active ingredient, 14 days after treatment. The method, boiled down: as §3
Experiment [11] concerns crabgrass. Kind of experiment: Test Example 14: herbicidal effect test by foliage treatment in upland field. As to conditions: 7 days after sowing, 120 g/10a, 14 days after treatment. The method, boiled down: as §2
For experiment [12], the system named is Chenopodium album. Described as above. The settings on record: 7 days after sowing, 120 g/10a, 14 days after treatment. The method, boiled down: as §2
The subject of experiment [13] is Monochoria vaginalis. As to the kind of experiment: Test Example 12: herbicidal effect test by treatment during growing period in paddy field. The settings on record: 120 g/10a; treatment seven days after sowing in flooded paddy pot; assessed 14 days after treatment. The method, boiled down: (§4)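 Growing-period treatment in flooded paddy pots: the diluted emulsifiable concentrate was dripped in at 120 g a.i. per 10 are seven days after seeding. Inhibition is expressed as percent reduction in dry weight versus untreated pots, measured 14 days later in duplicate.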

Experiment [14] has as its system Lindernia pyxidaria. The description is as above. As to conditions: 120 g/10a; treatment seven days after sowing in flooded paddy pot; assessed 14 days after treatment. In a few lines:
as §4

The subject of experiment [15] is Echinochloa crus-galli. The experiment is described as above. The settings on record: 120 g/10a; treatment seven days after sowing in flooded paddy pot; assessed 14 days after treatment. The method, boiled down: as §4
Experiment [16] concerns Scirpus juncoides. The experiment is described as above. The settings on record: 120 g/10a; treatment seven days after sowing in flooded paddy pot; assessed 14 days after treatment. The method, boiled down:
as §4

SMILES strings stand for the structures.

`CC(C)N(C(=O)n1cnn(S(=O)(=O)C2CCC2)c1=O)c1ccc(F)cc1F` [Compound 11-258]: the “herbicidal effect, Crabgrass” value was 100% with crabgrass [1] and 90% in the experiment on crabgrass [11]. Moreover, the “herbicidal effect, Echinochloa crus-galli” value with Echinochloa crus-galli [2] was determined as 100%; in the experiment with Echinochloa crus-galli [5] it was 80%. For the same compound, the results for the “herbicidal effect, Amaranthus viridis” value in the experiment with Amaranthus viridis [3] and in the experiment on Amaranthus viridis [6] were 100% and 90%, respectively. The “herbicidal effect, Chenopodium album” value in the experiment on Chenopodium album [4] is on record as 100%; in the experiment on Chenopodium album [12], 80%. For the same compound, the entries for the “Weed suppression rate (%) Monochoria vaginalis” value in the experiment with Monochoria vaginalis [7] and in the experiment with Monochoria vaginalis [13] were 100% and 90%, respectively. Besides, the “Weed suppression rate (%) Lindemia pyxidaria” value in the experiment on Lindernia pyxidaria [8] is 100%; with Lindernia pyxidaria [14] it was 90%. Moreover, the “Weed suppression rate (%) Echinochloa crus-galli” value was 100% with Echinochloa crus-galli [9] and 90% in the experiment with Echinochloa crus-galli [15]. Besides, the “Weed suppression rate (%) Scirpus juncoides” value is on record as 100% in the experiment on Scirpus juncoides [10] and 90% in the experiment with Scirpus juncoides [16].

For `CC(C)N(C(=O)n1cnn(S(=O)(=O)C2CC2)c1=O)c1ccc(Cl)nc1Cl` [Compound 11-238], the “herbicidal effect, Crabgrass” value in the experiment with crabgrass [1] and with crabgrass [11] was 90% in each case. For the same compound, the “herbicidal effect, Echinochloa crus-galli” value in the experiment on Echinochloa crus-galli [2] and in the experiment with Echinochloa crus-galli [5] was 80% throughout. In addition, the “herbicidal effect, Amaranthus viridis” value in the experiment on Amaranthus viridis [3] and in the experiment on Amaranthus viridis [6] was 90% each time. In addition, the “herbicidal effect, Chenopodium album” value in the experiment on Chenopodium album [4] and in the experiment with Chenopodium album [12] was 80% each time. In addition, the “Weed suppression rate (%) Monochoria vaginalis” value with Monochoria vaginalis [7] is reported as 80%; in the experiment with Monochoria vaginalis [13] it was 90%. Moreover, the “Weed suppression rate (%) Lindemia pyxidaria” value turned out to be 100% with Lindernia pyxidaria [8] and 80% with Lindernia pyxidaria [14]. Moreover, the “Weed suppression rate (%) Echinochloa crus-galli” value in the experiment with Echinochloa crus-galli [9] came to 90%; in the experiment with Echinochloa crus-galli [15], 100%. The “Weed suppression rate (%) Scirpus juncoides” value in the experiment with Scirpus juncoides [10] and in the experiment with Scirpus juncoides [16] was 90% throughout.

Turning to `CC(C)N(C(=O)n1cnn(S(C)(=O)=O)c1=O)c1cccc(F)c1F` [Compound 11-11], the “herbicidal effect, Crabgrass” value came to 90% in the experiment on crabgrass [1] and 100% with crabgrass [11]. Besides, the figures for the “herbicidal effect, Echinochloa crus-galli” value in the experiment on Echinochloa crus-galli [2] and in the experiment on Echinochloa crus-galli [5] were 80% and 100%, respectively. The results for the “herbicidal effect, Amaranthus viridis” value in the experiment with Amaranthus viridis [3] and in the experiment with Amaranthus viridis [6] were 30% and 60%, respectively. Also, the “herbicidal effect, Chenopodium album” value in the experiment on Chenopodium album [4] worked out at 30%; in the experiment on Chenopodium album [12], 70%. Besides, the “Weed suppression rate (%) Monochoria vaginalis” value in the experiment on Monochoria vaginalis [7] and in the experiment with Monochoria vaginalis [13] was 100% throughout. Further, the “Weed suppression rate (%) Lindemia pyxidaria” value in the experiment with Lindernia pyxidaria [8] came out at 100%; with Lindernia pyxidaria [14] it was 80%. Also, the “Weed suppression rate (%) Echinochloa crus-galli” value in the experiment on Echinochloa crus-galli [9] and in the experiment with Echinochloa crus-galli [15] was 100% in each case. Also, the “Weed suppression rate (%) Scirpus juncoides” value with Scirpus juncoides [10] and in the experiment with Scirpus juncoides [16] was 100% in each case.

Take `CC(C)CS(=O)(=O)n1ncn(C(=O)N(c2ccc(F)cc2F)C(C)C)c1=O` [Compound 11-94]: the “herbicidal effect, Crabgrass” value in the experiment on crabgrass [1] turned out to be 100%; in the experiment with crabgrass [11], 90%. In addition, the “herbicidal effect, Echinochloa crus-galli” value in the experiment on Echinochloa crus-galli [2] worked out at 100%; with Echinochloa crus-galli [5] it was 90%. In addition, the results for the “herbicidal effect, Amaranthus viridis” value in the experiment with Amaranthus viridis [3] and in the experiment with Amaranthus viridis [6] were 80% and 50%, respectively. The “herbicidal effect, Chenopodium album” value in the experiment on Chenopodium album [4] and in the experiment with Chenopodium album [12] was 90% in each case. The “Weed suppression rate (%) Monochoria vaginalis” value is 100% with Monochoria vaginalis [7] and 90% in the experiment on Monochoria vaginalis [13]. Also, the “Weed suppression rate (%) Lindemia pyxidaria” value with Lindernia pyxidaria [8] and in the experiment with Lindernia pyxidaria [14] was 100% each time. The “Weed suppression rate (%) Echinochloa crus-galli” value with Echinochloa crus-galli [9] and with Echinochloa crus-galli [15] was 100% throughout. The “Weed suppression rate (%) Scirpus juncoides” value in the experiment on Scirpus juncoides [10] and in the experiment on Scirpus juncoides [16] was 90% in each case.

As to `CCS(=O)(=O)n1ncn(C(=O)N(c2c(F)cc(F)cc2F)C(C)C)c1=O` [Compound 11-1154], the “herbicidal effect, Crabgrass” value in the experiment on crabgrass [1] and in the experiment on crabgrass [11] was 100% each time. Moreover, the “herbicidal effect, Echinochloa crus-galli” value in the experiment with Echinochloa crus-galli [2] and in the experiment with Echinochloa crus-galli [5] was 100% each time. For the same compound, the “herbicidal effect, Amaranthus viridis” value is listed as 90% in the experiment with Amaranthus viridis [3] and 30% with Amaranthus viridis [6]. Also, the “herbicidal effect, Chenopodium album” value in the experiment with Chenopodium album [4] and in the experiment with Chenopodium album [12] was 80% throughout. The “Weed suppression rate (%) Monochoria vaginalis” value with Monochoria vaginalis [7] came to 100%; with Monochoria vaginalis [13], 90%. Also, the entries for the “Weed suppression rate (%) Lindemia pyxidaria” value in the experiment with Lindernia pyxidaria [8] and in the experiment on Lindernia pyxidaria [14] were 100% and 80%, respectively. The “Weed suppression rate (%) Echinochloa crus-galli” value in the experiment with Echinochloa crus-galli [9] and in the experiment with Echinochloa crus-galli [15] was 100% in each case. The “Weed suppression rate (%) Scirpus juncoides” value in the experiment with Scirpus juncoides [10] came out at 100%; in the experiment on Scirpus juncoides [16] it was 80%.

As to `CC(C)N(C(=O)n1cnn(S(C)(=O)=O)c1=O)c1ccc(F)cc1F` [Compound 11-12], the “herbicidal effect, Crabgrass” value was 100% in the experiment with crabgrass [1] and 90% in the experiment with crabgrass [11]. For the same compound, the figures for the “herbicidal effect, Echinochloa crus-galli” value in the experiment on Echinochloa crus-galli [2] and with Echinochloa crus-galli [5] were 100% and 90%, respectively. The figures for the “herbicidal effect, Amaranthus viridis” value with Amaranthus viridis [3] and in the experiment on Amaranthus viridis [6] were 100% and 80%, respectively. The “herbicidal effect, Chenopodium album” value in the experiment on Chenopodium album [4] and in the experiment on Chenopodium album [12] was 90% each time. Further, the “Weed suppression rate (%) Monochoria vaginalis” value with Monochoria vaginalis [7] was 100%; with Monochoria vaginalis [13], 90%. Also, the “Weed suppression rate (%) Lindemia pyxidaria” value in the experiment with Lindernia pyxidaria [8] and with Lindernia pyxidaria [14] was 100% in each case. The “Weed suppression rate (%) Echinochloa crus-galli” value with Echinochloa crus-galli [9] and in the experiment on Echinochloa crus-galli [15] was 100% throughout. Moreover, the entries for the “Weed suppression rate (%) Scirpus juncoides” value with Scirpus juncoides [10] and in the experiment on Scirpus juncoides [16] were 100% and 90%, respectively.

In the case of `Cc1cc(C)c(S(=O)(=O)n2ncn(C(=O)N(c3ccc(F)cc3Cl)C(C)C)c2=O)c(C)c1` [Compound 11-870], the “herbicidal effect, Crabgrass” value with crabgrass [1] and in the experiment with crabgrass [11] was 90% throughout. For the same compound, the “herbicidal effect, Echinochloa crus-galli” value with Echinochloa crus-galli [2] and with Echinochloa crus-galli [5] was 80% in each case. Also, the “herbicidal effect, Amaranthus viridis” value with Amaranthus viridis [3] and with Amaranthus viridis [6] was 90% in each case. For the same compound, the “herbicidal effect, Chenopodium album” value with Chenopodium album [4] and with Chenopodium album [12] was 80% each time. For the same compound, the “Weed suppression rate (%) Monochoria vaginalis” value in the experiment with Monochoria vaginalis [7] and with Monochoria vaginalis [13] was 80% in each case. In addition, the “Weed suppression rate (%) Lindemia pyxidaria” value with Lindernia pyxidaria [8] and with Lindernia pyxidaria [14] was 80% each time. Further, the “Weed suppression rate (%) Echinochloa crus-galli” value in the experiment on Echinochloa crus-galli [9] and with Echinochloa crus-galli [15] was 90% throughout. In addition, the “Weed suppression rate (%) Scirpus juncoides” value in the experiment on Scirpus juncoides [10] and in the experiment with Scirpus juncoides [16] was 90% throughout.

Turning to `Cc1cc(C)c(S(=O)(=O)n2ncn(C(=O)N(c3ccc(F)cc3C)C(C)C)c2=O)c(C)c1` [Compound 11-876], the “herbicidal effect, Crabgrass” value in the experiment with crabgrass [1] and with crabgrass [11] was 100% in each case. The “herbicidal effect, Echinochloa crus-galli” value in the experiment on Echinochloa crus-galli [2] amounted to 100%; in the experiment on Echinochloa crus-galli [5], 90%. The “herbicidal effect, Amaranthus viridis” value in the experiment with Amaranthus viridis [3] is reported as 70%; in the experiment with Amaranthus viridis [6], 30%. The “herbicidal effect, Chenopodium album” value with Chenopodium album [4] is 100%; in the experiment on Chenopodium album [12], 30%. Moreover, the “Weed suppression rate (%) Monochoria vaginalis” value in the experiment with Monochoria vaginalis [7] and in the experiment with Monochoria vaginalis [13] was 100% each time. In addition, the “Weed suppression rate (%) Lindemia pyxidaria” value in the experiment on Lindernia pyxidaria [8] and in the experiment with Lindernia pyxidaria [14] was 100% each time. Further, the “Weed suppression rate (%) Echinochloa crus-galli” value in the experiment on Echinochloa crus-galli [9] and with Echinochloa crus-galli [15] was 100% each time. Moreover, the “Weed suppression rate (%) Scirpus juncoides” value in the experiment on Scirpus juncoides [10] and in the experiment on Scirpus juncoides [16] was 100% each time.
